“Also recorded” adds a separate entry of the source.
Key:
[1] = tested on: A8 (β274) epothilone-selected β-tubulin mutant clone of 1A9; assay: 72 h growth inhibition assay (SRB), epothilone-selected clone A8; type: cell-based, human
Protocol: (§1) The biological activities of the synthesized epothilones were evaluated through cytotoxicity and tubulin polymerization assays. Cytotoxicity was first evaluated in a set of ovarian carcinoma cell lines, including a parental cell line (IA9) and three drug-resistant cell lines, namely the paclitaxel-resistant cell lines (Giannakakou, P.; et al. J. Biol. Chem. 1997, 272, 17118-17125) IA9/PTX10 and IA9/PTX22 and the epothilone-resistant cell line (Giannakakou, P.; et al. Proc. Natl. Acad. Sci. USA 2000, 97, 2904-2909) 1A9/A8. These resistant cell lines harbor distinct acquired P-tubulin mutations which affect drug-tubulin interaction and result in impaired taxane and epothilone-driven tubulin polymerization. Further cytotoxicity studies were undertaken using a set of human epidermoid cancer cell lines, including a parent cell line (KB-31), and a paclitaxel-resistant (due to P-gp overexpression) cell line (KB-8511).
(§2) IC50 values for each compound are given in nM and represent the mean of 3-5 independent experiments±standard error of the mean. Relative resistance (RR) is calculated as an IC50 value for each resistant subline divided by that for the parental cell line (1A9).^b Data from reference 3. CP=cyclopropyl, CB=cyclobutyl, na=not applicable, nd=not determined, py=5-methylpyridine side chain.

[2] = tested on: ovarian carcinoma (1A9, PTX10, PTX22, A8) and epidermoid (KB-31, KB-8511) cancer cell lines; assay: Cytotoxicity, general statements over the cell line panel; type: cell-based, human; conditions: for cytotoxic activity (in words): cell line not specified or all cell lines
Protocol: as §1, §2
(§3) FIG. 16 is a table of tubulin polymerization potency^a and cytotoxicity^b of epothilones 1 through 12 and paclitaxel against human epidermoid cancer cell lines.^a% TP=percent tubulin polymerized after incubation of tubulin with a known concentration of compound (typically 3 μM).^b Cytotoxicity towards human cancer cell lines as IC50 values given in nM. KB-31: epidermoid Taxol®-sensitive, KB-8511: epidermoid Taxol®-resistant (due to P-gp over expression).

[3] = tested on: PTX10 (β270) paclitaxel-selected β-tubulin mutant clone of 1A9; assay: 72 h growth inhibition assay (SRB), paclitaxel-selected clone PTX10; type: cell-based, human
Protocol: as §1, §2

tubulin = assay: In vitro tubulin polymerization, fraction of tubulin polymerized (% TP); type: biochemical
Protocol: (§4) The cytotoxicity analysis was supplemented with data from two independent in vitro tubulin polymerization assays. In one assay, the fraction of tubulin polymerized into microtubules upon exposure to a given concentration of the respective compound was determined (see Table 2). In the other assay, tubulin polymerization kinetics upon exposure to the respective compounds was determined using purified rat brain tubulin through measurement of the absorbance at 350 nm (see FIG. 3). For this analysis, paclitaxel, epothilone A (1) and epothilone B (2) were used as controls while compounds 9, 11 and 12 were selected for in vitro analysis.
as §3

[4] = tested on: purified rat brain tubulin; assay: Tubulin polymerization kinetics, absorbance at 350 nm; type: biochemical; conditions: for in vitro tubulin polymerization activity (in words) / maximum degree of tubulin polymerization compared with epothilone A (1): A350
Protocol: as §4

[5] = tested on: KB-31 human epidermoid cancer cell line (Taxol-sensitive); assay: Cytotoxicity against human epidermoid cancer cell line KB-31; type: cell-based; conditions: parental sensitive KB-31 cells; 3 compared with epothilone A (1)
Protocol: as §1, §3

[6] = tested on: 1A9 human ovarian carcinoma cells; assay: 72 h growth inhibition assay (SRB), parental 1A9 cells; type: cell-based
Protocol: as §1, §2

[7] = tested on: PTX22 (β364) paclitaxel-selected β-tubulin mutant clone of 1A9; assay: 72 h growth inhibition assay (SRB), paclitaxel-selected clone PTX22; type: cell-based; conditions: Homo sapiens, read-out: IC50 against PTX22
Protocol: as §1, §2

Compound	activity against clone A8 versus parental line (in words) [1]	cytotoxic activity (in words) [2]	activity against clone PTX10 versus parental line (in words) [3]	tubulin polymerization promotion (in words) (tubulin)	time to A350=0.25 ([4]; polymerization kinetics) [min]	inhibition of KB-31 cell growth (in words) [5]	inhibition of 1A9 cell growth (in words) ([6]; parental sensitive 1A9 cells, 3 compared with epothilone A (1))	factor less active than 11 ([2]; cytotoxicity relative to analog 11)	in vitro tubulin polymerization activity (in words) [4]	maximum degree of tubulin polymerization compared with epothilone A (1) [4]	IC50 ([1]; Homo sapiens, 72 h, SRB, read-out: IC50 against A8) [nM]	IC50 ([3]; Homo sapiens, 72 h, SRB, read-out: IC50 against PTX10) [nM]	IC50 ([6]; Homo sapiens, Ovarian carcinoma cell, 1A9, 72 h, SRB, read-out: IC50 in the 1A9 human ovarian carcinoma cell line) [nM]	IC50 [7] [nM]
15S-cyclobutyl epothilone A [Compound 4]	lose some activity	retains good activity; also recorded: cytotoxic agents	lose some activity	potent tubulin polymerization promoters	–	–	–	–	–	–	–	–	–	–
C/C(=C\c1csc(C)n1)[C@@H]1C[C@@H]2O[C@@H]2CCC[C@H](C)[C@H](O)[C@@H](C)C(=O)C(C)(C)[C@@H](O)CC(=O)O1 [Compound 1, epothilone A]	–	–	–	–	2	–	–	–	–	–	–	–	–	–
C/C(=C\c1csc(C)n1)[C@@H]1C[C@@H]2C[C@@H]2CCC[C@H](C)[C@H](O)[C@@H](C)C(=O)C(C)(C)[C@@H](O)CC(=O)O1 [Compound 3, cyclopropyl epothilone A]	lose some activity	cytotoxic agents	lose some activity	potent tubulin polymerization promoters	–	slightly more potently	slightly more potently	–	–	–	–	–	–	–
C/C(=C\c1ccc(C)cn1)[C@@H]1C[C@@H]2C[C@@H]2CCC[C@H](C)[C@H](O)[C@@H](C)C(=O)C(C)(C)[C@@H](O)CC(=O)O1 [Compound 9]	lose some activity	highly active; also recorded: increased cytotoxic activity; also recorded: cytotoxic agents	lose some activity	potent tubulin polymerization promoters	–	–	–	three to five	good in vitro activity	smaller	–	–	–	–
C/C(=C\c1ccc(C)cn1)[C@@H]1C[C@@H]2C[C@H]2CCC[C@H](C)[C@H](O)[C@@H](C)C(=O)C(C)(C)[C@@H](O)CC(=O)O1 [Compound 11, (12R, 13S, 15S)-cyclopropyl 5-methylpyridine epothilone A]	lose some activity	outstanding activity; also recorded: increased cytotoxic activity; also recorded: cytotoxic agents	lose some activity	potent tubulin polymerization promoters	–	–	–	–	good in vitro activity	smaller	< 10	< 10	0.6	< 10

From patent US7358266B2, “Cyclopropyl and cyclobutyl epothilone analogs” (The Scripps Research Institute, priority 2001, dated 2008)
